From patent publication US7645720B2, “Extreme environment surfactant compositions comprising hydrolysis resistant organomodified disiloxane surfactants” (Momentive Performance Materials Inc., priority 2005, dated 2010)

Experiments:
Format in all cases: physicochemical
[1] = Surface tension (Kruss surface tensiometer); settings: 0.1 wt % in 0.005M NaCl water
Protocol: Surface tension was measured using a Kruss surface tensiometer, with a sand blasted platinum blade as the sensor. Solutions of the various components were prepared at 0.1 wt % in 0.005M NaCl water (Deionized), as an equilibrium aid.

[2] = Spreading of 10 μL droplet on polyacetate film; settings: 30 seconds
Protocol: (§1) Spreading was determined by applying a 10 μL droplet, of surfactant solution to polyacetate film (USI, “Crystal Clear Write on Film”) and measuring the spread diameter (mm) after 30 seconds, at a relative humidity between 50 and 70% (at 22 to 25° C.). The solution was applied with an automatic pipette to provide droplets of reproducible volume. Deionized water that was further purified with a Millipore filtration system was used to prepare the surfactant solutions.

[3] = Hydrolytic stability by HPLC; settings: 0.5 wt %
Protocol: Hydrolytic stability was determined for representative compositions of the present invention using HPLC. Solutions of the various compositions were prepared at 0.5 wt % over a pH range from pH 4 to pH 12, and monitored by HPLC for decomposition as a function of time.
• Detector: ELSD/LTA (Evaporative Light Scattering with Low Temperature Adapter • Conditions: 30° C., 1.95 SLPM N2 • Column: Phenomenex LUNA C18 end cap, 5 micron, 75×4.6 mm • Flow Rate: 1.0 mL/min. • Inj. Volume: 10 microliters • Sample: 0.050 g/mL in methanol

[4] = Hydrolytic stability by HPLC
[5] = Spreading properties vs time at set pH (resistance to hydrolysis); settings: 0.4 wt %
Protocol: as §1
Therefore solutions of the organomodified disiloxane surfactants of the present invention, as well as comparative surfactants were prepared at desired use levels and pH. Spreading was determined as a function of time to illustrate resistance to hydrolysis. […]
Solutions (0.4 wt %) of the surfactants were prepared at pH 4 and pH 5 and spreading properties were observed over time. The test conditions are outlined in Example 8.

C[Si](C)(C)O[Si](C)(C)CCCOCCOCCOCCOCCOCCOCCOCCOCCOCCOCCOCCO [Comparative C, reference compound]
Surface Tension [1]: 24.1 mN/m | Spread Diameter ([2]; 0.1%): 6 mm | Spread Diameter ([2]; 0.2%): 8 mm | Spread Diameter ([2]; 0.4%): 9 mm

C[Si](C)(CCCOCCOCCOCCOCCOCCOCCOCCOCCOCCOCCOCCO)O[Si](C)(C)C1CC2CC1C1C=CCC21 (stereo not shown) [Comparative D, reference compound]
Surface Tension [1]: 32.7 mN/m | Stability: % Siloxane Surfactant Remaining ([3]; pH 5, 48 h): >95% | Stability: % Siloxane Surfactant Remaining ([3]; pH 5, 9 days): 99% | Stability: % Siloxane Surfactant Remaining ([3]; pH 7, 48 h): >95% | Stability: % Siloxane Surfactant Remaining ([3]; pH 9, 48 h): >95% | Stability: % Siloxane Surfactant Remaining ([4]; pH 4, 48 h, 0.5 wt %): 82% | Stability: % Siloxane Surfactant Remaining ([4]; pH 4, 9 days, 0.5 wt %): 44% | Stability: % Siloxane Surfactant Remaining ([4]; pH 7, 9 days, 0.5 wt %): 99% | Stability: % Siloxane Surfactant Remaining ([4]; pH 9, 9 days, 0.5 wt %): 99% | Stability: % Siloxane Surfactant Remaining ([4]; pH 10, 48 h, 0.5 wt %): >95% | Stability: % Siloxane Surfactant Remaining ([4]; pH 10, 9 days, 0.5 wt %): 99% | Spread Diameter ([2]; 0.1%): 7 mm | Spread Diameter ([2]; 0.4%): 6 mm

CC(C)(C)CC(C)(C)c1ccc(OCCOCCOCCOCCOCCOCCOCCOCCOCCOCCO)cc1 [OPE, Octylphenolethoxylate]
Surface Tension [1]: 31.8 mN/m | Spread Diameter ([2]; 0.4%): 10 mm

CC(C)C[Si](C)(C)O[Si](C)(C)CCCOCCOCCOCCOCCOCCOCCOCCOCCOCCOCCOCCO [Product 4]
Surface Tension ([1]; listed as 4): 24.1 mN/m | Spread Diameter ([2]; 0.1%, listed as 4): 8 mm | Spread Diameter ([2]; 0.2%, listed as 4): 9 mm | Spread Diameter ([2]; 0.4%, listed as 4): 10 mm

CC(C)C[Si](C)(C)O[Si](C)(C)CCCOCCOCCOCCOCCOCCOCCOCCOCCOCCOCCOCCO [Product 7]
Surface Tension ([1]; listed as 7): 23.9 mN/m | Spread Diameter ([2]; 0.1%, listed as 7): 14 mm | Spread Diameter ([2]; 0.2%, listed as 7): 15 mm | Spread Diameter ([2]; 0.4%, listed as 7): 25 mm

C[Si](C)(C)CC[Si](C)(C)O[Si](C)(C)CCCOCCOCCOCCOCCOCCOCCOCCOCCOCCOCCOCCO [Product 11]
Surface Tension [1]: 24.5 mN/m | Stability: % Siloxane Surfactant Remaining ([4]; pH 4, 3 wk, Stock Solution 2.5 wt %): 79% | Stability: % Siloxane Surfactant Remaining ([4]; pH 4, 6 wk, Stock Solution 2.5 wt %): 56% | Stability: % Siloxane Surfactant Remaining ([4]; pH 4, 11 wk, Stock Solution 2.5 wt %): 10% | Stability: % Siloxane Surfactant Remaining ([4]; pH 4, 96 h, Stock Solution 2.5 wt %): 100% | Stability: % Siloxane Surfactant Remaining ([4]; pH 5, 3 wk, Stock Solution 2.5 wt %): 100% | Stability: % Siloxane Surfactant Remaining ([4]; pH 5, 6 wk, Stock Solution 2.5 wt %): 100% | Stability: % Siloxane Surfactant Remaining ([4]; pH 5, 11 wk, Stock Solution 2.5 wt %): 100% | Stability: % Siloxane Surfactant Remaining ([4]; pH 5, 96 h, Stock Solution 2.5 wt %): 100% | Stability: % Siloxane Surfactant Remaining ([4]; pH 7, 3 wk, Stock Solution 2.5 wt %): 100% | Stability: % Siloxane Surfactant Remaining ([4]; pH 7, 6 wk, Stock Solution 2.5 wt %): 100% | Stability: % Siloxane Surfactant Remaining ([4]; pH 7, 11 wk, Stock Solution 2.5 wt %): 100% | Stability: % Siloxane Surfactant Remaining ([4]; pH 7, 96 h, Stock Solution 2.5 wt %): 100% | Stability: % Siloxane Surfactant Remaining ([4]; pH 9, 3 wk, Stock Solution 2.5 wt %): 100% | Stability: % Siloxane Surfactant Remaining ([4]; pH 9, 6 wk, Stock Solution 2.5 wt %): 100% | Stability: % Siloxane Surfactant Remaining ([4]; pH 9, 11 wk, Stock Solution 2.5 wt %): 100% | Stability: % Siloxane Surfactant Remaining ([4]; pH 9, 96 h, Stock Solution 2.5 wt %): 100% | Stability: % Siloxane Surfactant Remaining ([4]; pH 10, 3 wk, Stock Solution 2.5 wt %): 100% | Stability: % Siloxane Surfactant Remaining ([4]; pH 10, 6 wk, Stock Solution 2.5 wt %): 100% | Stability: % Siloxane Surfactant Remaining ([4]; pH 10, 11 wk, Stock Solution 2.5 wt %): 100% | Stability: % Siloxane Surfactant Remaining ([4]; pH 10, 96 h, Stock Solution 2.5 wt %): 100% | Spreading Diameter ([5]; pH 4, 0 h): 16 mm | Spreading Diameter ([5]; pH 4, 1 mo): 10 mm | Spreading Diameter ([5]; pH 4, 1 wk): 8 mm | Spreading Diameter ([5]; pH 4, 2 wk): 8 mm | Spreading Diameter ([5]; pH 4, 3 wk): 12 mm | Spreading Diameter ([5]; pH 4, 1 h): 23 mm | Spreading Diameter ([5]; pH 4, 4 h): 23 mm | Spreading Diameter ([5]; pH 4, 24 h): 44 mm | Spreading Diameter ([5]; pH 4, 48 h): 38 mm | Spreading Diameter ([5]; pH 4, 72 h): 28 mm | Spreading Diameter ([5]; pH 5, 0 h): 26 mm | Spreading Diameter ([5]; pH 5, 1 mo): 42 mm | Spreading Diameter ([5]; pH 5, 1 wk): 29 mm | Spreading Diameter ([5]; pH 5, 2 wk): 33 mm | Spreading Diameter ([5]; pH 5, 3 wk): 33 mm | Spreading Diameter ([5]; pH 5, 1 h): 23 mm | Spreading Diameter ([5]; pH 5, 24 h): 24 mm | Spreading Diameter ([5]; pH 5, 48 h): 32 mm | Spreading Diameter ([5]; pH 5, 72 h): 35 mm | Spread Diameter ([2]; 0.1%): 20 mm | Spread Diameter ([2]; 0.2%): 21 mm | Spread Diameter ([2]; 0.4%): 32 mm
